Results reported in the supplement of paper PMC10307832.

Columns and labels:
Test in all cases: relative viability (nuclei count vs DMSO), 5 days (fraction); higher = more cells survive
[1] = compound: CC1CC(=O)N(C2=CN=C(N=C2N1C3CCCC3)NC4=C(C=C(C=C4)C(=O)NC5CCN(CC5)C)OC)C [NPK76-II-72-1] + Cc1nc(Nc2ncc(C(=O)Nc3c(C)cccc3Cl)s2)cc(N2CCN(CCO)CC2)n1 [Dasatinib] (partner 0.075 µM)
Outline: (§1)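 Lung cancer cell lines, seeded in 1536-well plates, were treated the following day by pin tool with a single drug or with five library-drug doses (not always all listed) in √10 steps on top of a fixed anchor-drug dose. Cells were fixed and nuclei stained in one step after 5 days, and nuclei were counted. Relative viability is the nuclei count for treated wells divided by that for vehicle wells, reported as medians of duplicate plates.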

BI-2536 + Crizotinib = compound: CC[C@@H]1C(=O)N(C)c2cnc(Nc3ccc(C(=O)NC4CCN(C)CC4)cc3OC)nc2N1C1CCCC1 [BI-2536] + C[C@@H](Oc1cc(-c2cnn(C3CCNCC3)c2)cnc1N)c1c(Cl)ccc(F)c1Cl [Crizotinib] (partner 1 µM)
Outline: as §1

[2] = compound: CC1CC(=O)N(C2=CN=C(N=C2N1C3CCCC3)NC4=C(C=C(C=C4)C(=O)NC5CCN(CC5)C)OC)C [NPK76-II-72-1] + CS(=O)(=O)CCNCc1ccc(-c2ccc3ncnc(Nc4ccc(OCc5cccc(F)c5)c(Cl)c4)c3c2)o1 [Lapatinib] (partner 2 µM)
Outline: as §1

BI-2536 + Olaparib = compound: CC[C@@H]1C(=O)N(C)c2cnc(Nc3ccc(C(=O)NC4CCN(C)CC4)cc3OC)nc2N1C1CCCC1 [BI-2536] + O=C(c1cc(Cc2n[nH]c(=O)c3ccccc23)ccc1F)N1CCN(C(=O)C2CC2)CC1 [Olaparib] (partner 8 µM)
Outline: as §1

Row | Cell Line | relative viability ([1]; first compound 0.01 µM) | relative viability ([1]; first compound 0.03162 µM) | relative viability ([1]; first compound 0.1 µM) | relative viability ([1]; first compound 0.3162 µM) | relative viability ([1]; first compound 1 µM) | relative viability (BI-2536 + Crizotinib; first compound 0.01 µM) | relative viability (BI-2536 + Crizotinib; first compound 0.03162 µM) | relative viability (BI-2536 + Crizotinib; first compound 0.1 µM) | relative viability (BI-2536 + Crizotinib; first compound 0.3162 µM) | relative viability (BI-2536 + Crizotinib; first compound 1 µM) | relative viability ([2]; first compound 0.01 µM) | relative viability ([2]; first compound 0.03162 µM) | relative viability ([2]; first compound 0.1 µM) | relative viability ([2]; first compound 0.3162 µM) | relative viability ([2]; first compound 1 µM) | relative viability (BI-2536 + Olaparib; first compound 0.01 µM) | relative viability (BI-2536 + Olaparib; first compound 0.03162 µM) | relative viability (BI-2536 + Olaparib; first compound 0.1 µM) | relative viability (BI-2536 + Olaparib; first compound 0.3162 µM) | relative viability (BI-2536 + Olaparib; first compound 1 µM)
1 | NCI-H1944 | 0.205 | 0.219 | 0.224 | 0.221 | 0.226 | 1.14 | 1.3 | 1.21 | 0.184 | 0.147 | 0.81 | 0.808 | 0.904 | 0.825 | 0.71 | 0.385 | 0.389 | 0.297 | 0.164 | 0.147
2 | NCI-H2009 | 0.297 | 0.342 | 0.301 | 0.287 | 0.317 | 0.962 | 0.696 | 0.287 | 0.191 | 0.16 | 0.961 | 1.09 | 0.888 | 0.774 | 1.15 | 0.665 | 0.54 | 0.45 | 0.114 | 0.126
3 | 201T | 0.574 | 0.614 | 0.52 | 0.525 | 0.59 | 1.02 | 1.03 | 1 | 0.66 | 0.358 | 0.975 | 1.07 | 1.04 | 1.11 | 1 | 0.879 | 0.796 | 0.853 | 0.382 | 0.205
4 | NCI-H23 | 0.752 | 0.771 | 0.565 | 0.859 | 0.776 | 0.622 | 0.398 | 0.426 | 0.146 | 0.141 | 1.03 | 1.27 | – | 1.12 | 0.985 | 0.307 | 0.318 | 0.212 | 0.117 | 0.104
5 | LOU-NH91 | 0.52 | 0.498 | 0.528 | 0.401 | 0.612 | 0.697 | 0.671 | 0.719 | 0.325 | 0.307 | 0.746 | 0.759 | 0.732 | 0.777 | 0.822 | 0.934 | 0.728 | 0.612 | 0.336 | 0.28
6 | NCI-H2085 | 0.258 | 0.266 | 0.24 | 0.227 | 0.22 | 0.895 | 0.751 | 0.578 | 0.254 | 0.307 | 0.748 | 0.735 | 0.763 | 0.714 | 0.78 | 0.786 | 0.697 | 0.544 | 0.341 | 0.381
7 | COR-L23 | 0.439 | 0.533 | 0.554 | 0.433 | 0.526 | 0.684 | 0.566 | 0.226 | 0.11 | 0.0912 | 0.879 | 1.02 | 1.02 | 1.03 | 0.929 | 0.384 | 0.288 | 0.156 | 0.111 | 0.111
8 | BEN | 0.33 | 0.232 | 0.314 | 0.345 | 0.324 | 0.849 | 0.6 | 0.556 | 0.243 | 0.216 | 0.61 | 0.548 | 0.657 | 0.492 | 0.697 | 1.09 | 0.984 | 0.779 | 0.382 | 0.364
9 | LK-2 | 0.299 | 0.275 | 0.322 | 0.233 | 0.244 | 0.245 | 0.237 | 0.202 | 0.177 | 0.245 | 0.83 | 0.886 | 0.877 | 0.774 | 1.12 | 0.578 | 0.491 | 0.28 | 0.098 | 0.134
10 | NCI-H322M | 0.268 | 0.241 | 0.249 | 0.234 | 0.256 | 0.992 | 0.721 | 0.92 | 0.346 | 0.308 | 0.515 | 0.636 | 0.597 | 0.612 | 0.557 | 0.74 | 0.692 | 0.637 | 0.442 | 0.393
11 | NCI-H520 | 0.203 | 0.172 | 0.178 | 0.187 | 0.252 | 0.764 | 0.323 | 0.202 | 0.184 | 0.117 | 0.735 | 0.85 | 0.912 | 0.857 | 0.841 | 0.284 | 0.217 | 0.228 | 0.162 | 0.168
12 | ABC-1 | – | 0.578 | 0.622 | 0.573 | 0.614 | 1.27 | 0.601 | 0.353 | 0.205 | 0.214 | 1.02 | 1.19 | 1.18 | 1.08 | 1.31 | 0.657 | 0.876 | 0.423 | 0.406 | 0.299
13 | NCI-H1666 | 0.705 | 0.841 | 0.723 | 0.832 | 0.912 | 0.924 | 0.899 | 0.503 | 0.306 | 0.321 | 0.515 | 0.653 | 0.789 | 0.58 | 0.788 | 0.76 | 0.704 | 0.671 | 0.545 | 0.583
14 | NCI-H1993 | 0.442 | 0.654 | 0.619 | 0.548 | 0.759 | 0.945 | 0.906 | 0.621 | 0.57 | 0.693 | 0.729 | 0.92 | 0.906 | 0.822 | 0.788 | 1.04 | 0.861 | 0.749 | 0.471 | 0.486
15 | NCI-H1975 | 0.336 | 0.402 | 0.359 | 0.439 | 0.382 | 1.12 | 0.504 | 0.595 | 0.185 | 0.166 | 0.813 | 0.878 | 0.928 | 0.886 | 0.955 | 0.776 | 0.71 | 0.544 | 0.161 | 0.169
